According to ChEMBL document CHEMBL1201862, “PubChem BioAssay data set” (2004):
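Values below derive from 48-hour exposures of cells grown in 96-well plates, with endpoints linearly interpolated between the two concentrations bracketing the appropriate inhibition level. The concentration for 50% growth inhibition is given as GI50.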 The source made the active and inactive calls. Rule as the data show it: active = GI50 up to about 1.1 µM and inactive = higher.

What was measured:
Test in all cases: NCI-60 cell line screen, 48 h
[1] = tested on: 786-0
[2] = tested on: A498
[3] = tested on: A549
[4] = tested on: ACHN
[5] = tested on: BT-549
[6] = tested on: CAKI-1
[7] = tested on: CCRF-CEM
[8] = tested on: COLO 205
[9] = tested on: DU-145
[10] = tested on: EKVX
[11] = tested on: HCC 2998
[12] = tested on: HCT-116
[13] = tested on: HCT-15
[14] = tested on: HL-60
[15] = tested on: HOP-62
[16] = tested on: HOP-92
[17] = tested on: HT-29
[18] = tested on: Hs-578T
[19] = tested on: IGROV-1
[20] = tested on: KM12
[21] = tested on: LOX IMVI
[22] = tested on: M14
[23] = tested on: MCF7
[24] = tested on: MDA-MB-231
[25] = tested on: MDA-MB-435
[26] = tested on: MDA-N
[27] = tested on: MOLT-4
[28] = tested on: Malme-3M
[29] = tested on: NCI-H226
[30] = tested on: NCI-H23
[31] = tested on: NCI-H460
[32] = tested on: NCI-H522
[33] = tested on: NCI/ADR-RES
[34] = tested on: OVCAR-3
[35] = tested on: OVCAR-4
[36] = tested on: OVCAR-5
[37] = tested on: OVCAR-8
[38] = tested on: PC-3
[39] = tested on: RPMI-8226
[40] = tested on: RXF 393
[41] = tested on: SF-268
[42] = tested on: SF-295
[43] = tested on: SF-539
[44] = tested on: SK-MEL-28
[45] = tested on: SK-MEL-2
[46] = tested on: SK-MEL-5
[47] = tested on: SK-OV-3
[48] = tested on: SN12C
[49] = tested on: SNB-19
[50] = tested on: SNB-75
[51] = tested on: SR
[52] = tested on: SW-620
[53] = tested on: T47D
[54] = tested on: TK-10
[55] = tested on: U-251
[56] = tested on: UACC-257
[57] = tested on: UACC-62
[58] = tested on: UO-31
[59] = tested on: K562

Compound: COc1ccc(P2(=S)SP(=S)(c3ccc(Cl)cc3)S2)cc1 (configuration not stated)
- GI50 [1]: > 100 µM (inactive)
- GI50 [2]: > 100 µM (inactive)
- GI50 [3]: > 100 µM (inactive)
- GI50 [4]: > 100 µM (inactive)
- GI50 [5]: > 100 µM (inactive)
- GI50 [6]: > 100 µM (inactive)
- GI50 [7]: > 100 µM (inactive)
- GI50 [8]: > 100 µM (inactive)
- GI50 [9]: > 100 µM (inactive)
- GI50 [10]: > 100 µM (inactive)
- GI50 [11]: > 100 µM (inactive)
- GI50 [12]: > 100 µM (inactive)
- GI50 [13]: > 100 µM
- GI50 [14]: > 100 µM (inactive)
- GI50 [15]: > 100 µM (inactive)
- GI50 [16]: > 100 µM (inactive)
- GI50 [17]: > 100 µM (inactive)
- GI50 [18]: > 100 µM (inactive)
- GI50 [19]: > 100 µM (inactive)
- GI50 [20]: > 100 µM (inactive)
- GI50 [21]: > 100 µM (inactive)
- GI50 [22]: > 100 µM (inactive)
- GI50 [23]: > 100 µM (inactive)
- GI50 [24]: > 100 µM (inactive)
- GI50 [25]: > 100 µM (inactive)
- GI50 [26]: > 100 µM (inactive)
- GI50 [27]: > 100 µM (inactive)
- GI50 [28]: > 100 µM (inactive)
- GI50 [29]: > 100 µM (inactive)
- GI50 [30]: > 100 µM (inactive)
- GI50 [31]: > 100 µM (inactive)
- GI50 [32]: > 100 µM (inactive)
- GI50 [33]: > 100 µM (inactive)
- GI50 [34]: > 100 µM (inactive)
- GI50 [35]: > 100 µM (inactive)
- GI50 [36]: > 100 µM (inactive)
- GI50 [37]: > 100 µM (inactive)
- GI50 [38]: > 100 µM (inactive)
- GI50 [39]: > 100 µM (inactive)
- GI50 [40]: > 100 µM (inactive)
- GI50 [41]: > 100 µM (inactive)
- GI50 [42]: > 100 µM (inactive)
- GI50 [43]: > 100 µM (inactive)
- GI50 [44]: > 100 µM (inactive)
- GI50 [45]: > 100 µM (inactive)
- GI50 [46]: > 100 µM (inactive)
- GI50 [47]: > 100 µM (inactive)
- GI50 [48]: > 100 µM (inactive)
- GI50 [49]: > 100 µM (inactive)
- GI50 [50]: > 100 µM (inactive)
- GI50 [51]: > 100 µM (inactive)
- GI50 [52]: > 100 µM (inactive)
- GI50 [53]: > 100 µM (inactive)
- GI50 [54]: > 100 µM (inactive)
- GI50 [55]: > 100 µM (inactive)
- GI50 [56]: > 100 µM (inactive)
- GI50 [57]: > 100 µM (inactive)
- GI50 [58]: > 100 µM (inactive)

Compound: CN1CSC(=S)N(c2c3ccccc3nc3ccc(Br)cc23)C1
- GI50 [1]: 4.7 µM (inactive)
- GI50 [2]: 13.6 µM (inactive)
- GI50 [3]: 6.22 µM (inactive)
- GI50 [4]: 6.59 µM (inactive)
- GI50 [5]: 15.4 µM (inactive)
- GI50 [6]: 5.41 µM (inactive)
- GI50 [7]: 4.08 µM (inactive)
- GI50 [8]: 6.43 µM (inactive)
- GI50 [9]: 8.09 µM (inactive)
- GI50 [10]: 12.9 µM (inactive)
- GI50 [11]: 2.79 µM (inactive)
- GI50 [12]: 4.28 µM (inactive)
- GI50 [13]: 6.4 µM
- GI50 [14]: 11.1 µM (inactive)
- GI50 [15]: 7.87 µM (inactive)
- GI50 [16]: 16.3 µM (inactive)
- GI50 [17]: 5.42 µM (inactive)
- GI50 [18]: 17.8 µM (inactive)
- GI50 [19]: 10.8 µM (inactive)
- GI50 [59]: 2.32 µM (inactive)
- GI50 [20]: 7.11 µM (inactive)
- GI50 [21]: 7.83 µM (inactive)
- GI50 [22]: 13.1 µM (inactive)
- GI50 [23]: 5.83 µM (inactive)
- GI50 [24]: 8.45 µM (inactive)
- GI50 [25]: 8.67 µM (inactive)
- GI50 [26]: 10.4 µM (inactive)
- GI50 [27]: 0.783 µM (active)
- GI50 [28]: 16.7 µM (inactive)
- GI50 [29]: 10 µM (inactive)
- GI50 [30]: 10 µM (inactive)
- GI50 [31]: 3.83 µM (inactive)
- GI50 [32]: 4.4 µM (inactive)
- GI50 [33]: 7.67 µM (inactive)
- GI50 [34]: 16.7 µM (inactive)
- GI50 [35]: 7.11 µM (inactive)
- GI50 [36]: 13.7 µM (inactive)
- GI50 [37]: 7.93 µM (inactive)
- GI50 [38]: 8.77 µM (inactive)
- GI50 [39]: 7.71 µM (inactive)
- GI50 [40]: 11.9 µM (inactive)
- GI50 [41]: 9.64 µM (inactive)
- GI50 [42]: 6.7 µM (inactive)
- GI50 [43]: 11.6 µM (inactive)
- GI50 [44]: 16.9 µM (inactive)
- GI50 [45]: 13 µM (inactive)
- GI50 [46]: 12.4 µM (inactive)
- GI50 [47]: 12.9 µM (inactive)
- GI50 [48]: 5.31 µM (inactive)
- GI50 [49]: 12.5 µM (inactive)
- GI50 [50]: 8.99 µM (inactive)
- GI50 [51]: 0.796 µM (active)
- GI50 [52]: 3.89 µM (inactive)
- GI50 [53]: 11.6 µM (inactive)
- GI50 [54]: 9.51 µM (inactive)
- GI50 [55]: 7.13 µM (inactive)
- GI50 [56]: 12.1 µM (inactive)
- GI50 [57]: 14 µM (inactive)
- GI50 [58]: 9.06 µM (inactive)
